Source: ChEMBL document CHEMBL3352227, “Synthesis, antimycobacterial and antibacterial evaluation of l-[(1R, 2S)-2-fluorocyclopropyl]fluoroquinolone derivatives containing an oxime functional moiety” (Eur J Med Chem, 2014)
≈ marks a conversion by molar mass, not a printed value.

Columns and labels:
Format in all cases: functional
[1] = test system: Staphylococcus aureus; test: Antibacterial activity against Staphylococcus aureus ATCC 25923 after 18 to 24 hrs by standard twofold serial dilution method
[2] = test system: Streptococcus pneumoniae; test: Antibacterial activity against Streptococcus pneumoniae 12-18 after 18 to 24 hrs by standard twofold serial dilution method
[3] = test system: Streptococcus pneumoniae; test: Antibacterial activity against Streptococcus pneumoniae ATCC 49619 after 18 to 24 hrs by standard twofold serial dilution method
[4] = test system: Escherichia coli; test: Antibacterial activity against Escherichia coli ATCC 25922 after 18 to 24 hrs by standard twofold serial dilution method
[5] = test system: Klebsiella pneumoniae; test: Antibacterial activity against Klebsiella pneumoniae 12-1 after 18 to 24 hrs by standard twofold serial dilution method
[6] = test system: Klebsiella pneumoniae; test: Antibacterial activity against Klebsiella pneumoniae 12-2 after 18 to 24 hrs by standard twofold serial dilution method
[7] = test system: Klebsiella pneumoniae; test: Antibacterial activity against Klebsiella pneumoniae 12-4 after 18 to 24 hrs by standard twofold serial dilution method
[8] = test system: Staphylococcus epidermidis; test: Antibacterial activity against methicillin-sensitive Staphylococcus epidermidis 12-3 after 18 to 24 hrs by standard twofold serial dilution method
[9] = test system: Mycobacterium tuberculosis; test: Antimycobacterial activity against Mycobacterium tuberculosis H37Rv ATCC 27294 by MABA method
[10] = test system: Staphylococcus aureus; test: Antibacterial activity against methicillin-resistant Staphylococcus aureus 12-5 after 18 to 24 hrs by standard twofold serial dilution method
[11] = test system: Staphylococcus aureus; test: Antibacterial activity against methicillin-sensitive Staphylococcus aureus 12-2 after 18 to 24 hrs by standard twofold serial dilution method
[12] = test system: Staphylococcus epidermidis; test: Antibacterial activity against methicillin-resistant Staphylococcus epidermidis 12-1 after 18 to 24 hrs by standard twofold serial dilution method
[13] = test system: Staphylococcus aureus; test: Antibacterial activity against methicillin-resistant Staphylococcus aureus 12-2 after 18 to 24 hrs by standard twofold serial dilution method
[14] = test system: Pseudomonas aeruginosa; test: Antibacterial activity against Pseudomonas aeruginosa 12-14 after 18 to 24 hrs by standard twofold serial dilution method
[15] = test system: Escherichia coli; test: Antibacterial activity against extended-spectrum beta-lactamase producing Escherichia coli 12-14 after 18 to 24 hrs by standard twofold serial dilution method
[16] = test system: Escherichia coli; test: Antibacterial activity against extended-spectrum beta-lactamase producing Escherichia coli 12-2 after 18 to 24 hrs by standard twofold serial dilution method
[17] = test system: Klebsiella pneumoniae; test: Antibacterial activity against extended-spectrum beta-lactamase producin Klebsiella pneumoniae 12-3 after 18 to 24 hrs by standard twofold serial dilution method
[18] = test system: Staphylococcus epidermidis; test: Antibacterial activity against methicillin-sensitive Staphylococcus epidermidis 12-8 after 18 to 24 hrs by standard twofold serial dilution method
[19] = test system: Escherichia coli; test: Antibacterial activity against Escherichia coli 12-1 after 18 to 24 hrs by standard twofold serial dilution method
[20] = test system: Klebsiella pneumoniae; test: Antibacterial activity against extended-spectrum beta-lactamase producin Klebsiella pneumoniae 12-4 after 18 to 24 hrs by standard twofold serial dilution method
[21] = test system: Staphylococcus aureus; test: Antibacterial activity against methicillin-resistant Staphylococcus aureus 12-4 after 18 to 24 hrs by standard twofold serial dilution method
[22] = test system: Staphylococcus epidermidis; test: Antibacterial activity against methicillin-sensitive Staphylococcus epidermidis 12-1 after 18 to 24 hrs by standard twofold serial dilution method
[23] = test system: Staphylococcus aureus; test: Antibacterial activity against methicillin-sensitive Staphylococcus aureus 12-1 after 18 to 24 hrs by standard twofold serial dilution method
[24] = test system: Klebsiella pneumoniae; test: Antibacterial activity against extended-spectrum beta-lactamase producin Klebsiella pneumoniae 12-14 after 18 to 24 hrs by standard twofold serial dilution method
[25] = test system: Klebsiella pneumoniae; test: Antibacterial activity against extended-spectrum beta-lactamase producin Klebsiella pneumoniae 12-7 after 18 to 24 hrs by standard twofold serial dilution method
[26] = test system: Pseudomonas aeruginosa; test: Antibacterial activity against Pseudomonas aeruginosa 12-12 after 18 to 24 hrs by standard twofold serial dilution method
[27] = test system: Staphylococcus aureus; test: Antibacterial activity against methicillin-sensitive Staphylococcus aureus 12-4 after 18 to 24 hrs by standard twofold serial dilution method
[28] = test system: Staphylococcus epidermidis; test: Antibacterial activity against methicillin-resistant Staphylococcus epidermidis 12-6 after 18 to 24 hrs by standard twofold serial dilution method
[29] = test system: Staphylococcus epidermidis; test: Antibacterial activity against methicillin-sensitive Staphylococcus epidermidis 12-6 after 18 to 24 hrs by standard twofold serial dilution method
[30] = test system: Escherichia coli; test: Antibacterial activity against extended-spectrum beta-lactamase producing Escherichia coli 12-15 after 18 to 24 hrs by standard twofold serial dilution method
[31] = test system: Escherichia coli; test: Antibacterial activity against extended-spectrum beta-lactamase producing Escherichia coli 12-3 after 18 to 24 hrs by standard twofold serial dilution method
[32] = test system: Staphylococcus aureus; test: Antibacterial activity against methicillin-sensitive Staphylococcus aureus 12-5 after 18 to 24 hrs by standard twofold serial dilution method

Row | SMILES | MIC [1] [µg/mL] | MIC [2] [µg/mL] | MIC [3] [µg/mL] | MIC [4] [µg/mL] | MIC [5] [µg/mL] | MIC [6] [µg/mL] | MIC [7] [µg/mL] | MIC [8] [µg/mL] | MIC [9] [µg/mL] | MIC [10] [µg/mL] | MIC [11] [µg/mL] | MIC [12] [µg/mL] | MIC [13] [µg/mL] | MIC [14] [µg/mL] | MIC [15] [µg/mL] | MIC [16] [µg/mL] | MIC [17] [µg/mL] | MIC [18] [µg/mL] | MIC [19] [µg/mL] | MIC [20] [µg/mL] | other results
1 | CO/N=C1/CN(c2c(F)cc3c(=O)c(C(=O)O)cn([C@@H]4C[C@@H]4F)c3c2Cl)CC1CN (some centres undefined) | < 0.008 | 1 (≈ 2.27 µM) | 0.25 (≈ 0.567 µM) | 0.125 (≈ 0.284 µM) | 0.25 (≈ 0.567 µM) | 0.25 (≈ 0.567 µM) | 0.25 (≈ 0.567 µM) | 0.5 (≈ 1.13 µM) | 4 (≈ 9.07 µM) | 16 (≈ 36.3 µM) | 0.125 (≈ 0.284 µM) | 4 (≈ 9.07 µM) | 16 (≈ 36.3 µM) | 16 (≈ 36.3 µM) | 64 (≈ 145 µM) | 64 (≈ 145 µM) | 32 (≈ 72.6 µM) | 2 (≈ 4.54 µM) | 1 (≈ 2.27 µM) | 16 (≈ 36.3 µM) | MIC [21]: 16 µg/mL (≈ 36.3 µM); MIC [22]: 0.125 µg/mL (≈ 0.284 µM); MIC [23]: 0.125 µg/mL (≈ 0.284 µM); MIC [24]: 32 µg/mL (≈ 72.6 µM); MIC [25]: 4 µg/mL (≈ 9.07 µM); MIC [26]: 1 µg/mL (≈ 2.27 µM); MIC [27]: 0.06 µg/mL (≈ 0.136 µM); MIC [28]: 4 µg/mL (≈ 9.07 µM); MIC [29]: 0.125 µg/mL (≈ 0.284 µM); MIC [30]: 128 µg/mL (≈ 290 µM); MIC [31]: 32 µg/mL (≈ 72.6 µM); MIC [32]: 0.125 µg/mL (≈ 0.284 µM)
2 | CO/N=C1/CN(c2nc3c(cc2F)c(=O)c(C(=O)O)cn3[C@@H]2C[C@@H]2F)[C@@H]1CN | 0.25 (≈ 0.636 µM) | 4 (≈ 10.2 µM) | 1 (≈ 2.54 µM) | 0.25 (≈ 0.636 µM) | 1 (≈ 2.54 µM) | 0.5 (≈ 1.27 µM) | 0.5 (≈ 1.27 µM) | 0.5 (≈ 1.27 µM) | 4 (≈ 10.2 µM) | > 128 | 0.5 (≈ 1.27 µM) | 64 (≈ 163 µM) | > 128 | 128 (≈ 325 µM) | > 128 | > 128 | > 128 | 32 (≈ 81.4 µM) | 2 (≈ 5.08 µM) | 16 (≈ 40.7 µM) | MIC [21]: > 128 µg/mL; MIC [22]: 0.5 µg/mL (≈ 1.27 µM); MIC [23]: 1 µg/mL (≈ 2.54 µM); MIC [24]: 128 µg/mL (≈ 325 µM); MIC [25]: 4 µg/mL (≈ 10.2 µM); MIC [26]: 2 µg/mL (≈ 5.08 µM); MIC [27]: 0.5 µg/mL (≈ 1.27 µM); MIC [28]: 64 µg/mL (≈ 163 µM); MIC [29]: 0.5 µg/mL (≈ 1.27 µM); MIC [30]: > 128 µg/mL; MIC [31]: 16 µg/mL (≈ 40.7 µM); MIC [32]: 0.5 µg/mL (≈ 1.27 µM)
